Laboratory results reported in patent US7655632B2, “Pyrazole derivative, medicinal composition containing the same, medicinal use thereof, and intermediate for production thereof” (Kissei Pharmaceutical Co., Ltd., priority 2002, dated 2010).

Key:
[1] = target: T1, human SGLT1 (Homo sapiens, UniProt P13866); experiment: Assay for inhibitory effects on human SGLT1 activity (uptake of methyl-α-D-glucopyranoside in CS1-5-11D cells); type: cell-based; details: CHO-K1 cells stably expressing human SGLT1 (CS1-5-11D); 1 mM α-MG uptake, 37° C., 1 hour
T1 construct: expressed in transfected cells
T1 sequence (P13866 1-664): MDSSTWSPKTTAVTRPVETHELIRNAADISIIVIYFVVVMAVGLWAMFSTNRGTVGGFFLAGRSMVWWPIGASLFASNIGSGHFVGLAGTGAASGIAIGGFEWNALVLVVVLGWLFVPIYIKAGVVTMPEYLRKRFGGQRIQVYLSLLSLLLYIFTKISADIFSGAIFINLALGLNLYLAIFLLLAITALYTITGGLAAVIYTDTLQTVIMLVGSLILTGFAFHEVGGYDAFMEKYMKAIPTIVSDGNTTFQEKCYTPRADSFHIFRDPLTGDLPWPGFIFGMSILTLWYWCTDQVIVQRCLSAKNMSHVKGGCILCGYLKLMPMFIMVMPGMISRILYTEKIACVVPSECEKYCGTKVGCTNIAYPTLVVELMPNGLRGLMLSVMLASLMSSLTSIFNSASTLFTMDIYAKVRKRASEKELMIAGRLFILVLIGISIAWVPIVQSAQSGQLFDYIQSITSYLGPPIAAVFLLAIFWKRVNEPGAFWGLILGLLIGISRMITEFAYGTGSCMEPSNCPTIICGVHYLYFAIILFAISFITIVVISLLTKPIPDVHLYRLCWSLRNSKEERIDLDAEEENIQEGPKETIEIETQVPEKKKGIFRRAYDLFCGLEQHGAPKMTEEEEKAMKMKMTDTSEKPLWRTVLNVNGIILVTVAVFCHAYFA
Procedure: Assay for Inhibitory Effects on Human SGLT1 Activity
1) Cloning and Construction of the Vector Expressing Human SGLT1
The cDNA library was prepared for PCR amplification by reverse transcription from total RNA deprived from human small intestine (Ori gene) using oligo-dT as a primer. Using this cDNA library as a template, the DNA fragment coding 1 to 2005 bp of human SGLT1 (ACCESSION: M24847), which was reported by Hediger et al., was amplified by PCR method and inserted into the multi-cloning site of pcDNA3.1(−) (Invitrogen). The DNA sequence inserted was perfectly matched to the previously reported sequence.
2) Establishment of Cell Line Stably Expressing Human SGLT1
The expression vector of human SGLT1 was digested by Sca I into a linear DNA. The linear DNA was transfected into CHO-K1 cells by means of lipofection (Effectene Transfection Reagent: QIAGEN). Neomycin resistant cell lines were selected by culture in the medium containing G418 (1 mg/mL, LIFE TECHNOLOGIES), and then the activity against the uptake of methyl-α-D-gluco-pyranoside was measured by the method described below. […] CS1-5-11D cells were cultured in the presence of G418 at 200 μg/mL.
3) Measurement of the Inhibitory Activity Against the Uptake of methyl-α-D-glucopyranoside (α-MG)
CS1-5-11D cells were seeded into a 96-well culture plate at a density of 3×10^4 cells/well and cultured for 2 days, and were used in the uptake assay. A mixture of non-labeled (Sigma) and ^14C-labeled α-MG (Amersham Pharmcia Biotec) was added to the uptake buffer (pH 7.4; containing 140 mM sodium chloride, 2 mM potassium chloride, 1 mM calcium chloride, 1 mM magnesium chloride, 10 mM 2-[4-(2-hydroxyethyl)-1-piperazinyl]ethane sulfonic acid, and 5 mM tris(hydroxymethyl)aminomethane) at the final concentration of 1 mM. A test compound was dissolved in dimethyl sulfoxide, and then appropriately diluted with distilled water. The test compound solution was added to the uptake buffer containing 1 mM α-MG, and designated as a measurement buffer. For the control group, the measurement buffer without any test compound was prepared. For measuring the basal uptake, a basal uptake measurement buffer which contains 140 mM chorine chloride instead of sodium chloride was prepared. After removing the culture medium of CS1-5-11D cells, 180 μL of the pre-treatment buffer (the basal uptake buffer without α-MG) was added to each well and incubated at 37° C. for 10 minutes. After repeating the same treatment, the pre-treatment buffer was removed. To each well was added 75 μL of the measurement buffer or the basal uptake buffer was added and incubated at 37° C. for 1 hour. After removing the measurement buffer, cells were washed twice with 180 μL per well of the washing buffer (the basal uptake buffer containing 10 mM non-labeled α-MG). The cells were solubilized by 75 μL per well of 0.2 mol/L sodium hydroxide. The cell lysates were transferred into PicoPlates (Packard), and then added 150 μL of MicroScint-40 (Packard) and mixed. Radioactivity was measured by means of micro-scintillation counter TopCount (Packard). One hundred % was set to the difference between the uptake in the control group and the basal uptake, and the uptake of methyl α-D-gluco-pyranoside at each drug concentration were calculated.

[2] = test system: diabetic rats; experiment: Assay for inhibitory effects on blood glucose level increase in rats (liquid meal tolerance test in diabetic rat model); type: in vivo; details: test compound 1 mg/kg orally, liquid meal 17.25 kcal/kg, mean ± S.E.; for Plasma glucose concentration 0.5 h: 0.5 hour after drug administration; for Plasma glucose concentration 1 h: 1 hour after drug administration; for Plasma glucose concentration 0 h: pretreatment (0 h)
Procedure: Assay for Inhibitory Effects on Blood Glucose Level Increase in rats
1) Preparation of Diabetic Rat Model
Male wistar rats (Japan Charles River), aged 8 weeks old, were injected nicotinamide (230 mg/kg) intraperitoneally. Fifteen minutes after injection, they were injected streptozotocin (85 mg/kg) intravenously from tail vain under anesthesia with ether. After a week, rats were fasted overnight and then glucose tolerance test (2 g/kg) was done.
2) Liquid Meal Tolerance Test
After overnight fasted, the diabetic rats were orally administered a test compound (1 mg/kg), which was dissolved in distilled water, in the drug-treating group, or distilled water alone in a control group. Immediately after the compound administration, 17.25 kcal/kg of liquid meal (No. 038, Control diet, assorted with dextrin and maltose; Oriental Yeast Co., Ltd.) was loaded orally. The blood was collected from tail artery immediately before and after administration with the time course, and treated with heparin immediately. The blood was centrifuged, and the plasma was collected to quantify the plasma glucose concentration by glucose oxidase method. The values in the table are presented as the mean ±S.E.

Compound | IC50 [1] | Plasma glucose concentration 0.5 h [2] | Plasma glucose concentration 1 h [2] | Plasma glucose concentration 0 h [2]
CC(C)c1[nH]nc(O[C@@H]2O[C@H](CO)[C@@H](O)[C@H](O)[C@H]2O)c1Cc1ccc(CCCC(=O)NC(C)(C)C(=O)NCCO)cc1 [Example 30, 3-(β-D-Glucopyranosyloxy)-4-[(4-{3-[1-(2-hydroxyethyl-carbamoyl)-1-(methyl)ethylcarbamoyl]propyl}phenyl)methyl]-5-isopropyl-1H-pyrazole] | 52 nM | 163 ± 8 mg/dL | 187 ± 9 mg/dL | 121 ± 6 mg/dL
3-(β-D-Galactopyranosyloxy)-4-[(4-{3-[2-hydroxy-1-hydroxy-methyl-1-(methyl)ethylcarbamoyl]propyl}phenyl)methyl]-5-isopropyl-1H-pyrazole [Example 32] | 220 nM | 223 ± 20 mg/dL | 278 ± 32 mg/dL | 125 ± 8 mg/dL
